Laboratory results published in patent US20260355199A1, “COMPOSITIONS AND METHODS FOR TREATING OR PREVENTING NONALCOHOLIC STEATOHEPATITIS (NASH), ANOREXIA, DEPRESSION, ENDOMETRIOSIS, AND OTHER DISEASES OR DISORDERS” (priority 2022, published 2026).
“Also recorded” adds a separate entry of the source.

Test system: TET3
Test: TET3 protein level (immunoblot/immunofluorescence) in GT1-7 cells
Assay type: cell-based, mouse
Conditions: 10 μM
Experimental: Mouse GT1-7 hypothalamic neuronal cell line (Sigma-Aldrich, SCC116), human SH-SY5Y neuronal blastoma cell line (ATCC, CRL-2266), and embryonic mouse hypothalamus cell line N11 (mHypoE-N11) (Cedarlane, CLU107) were purchased and cultured according to the manufacturers' instructions. For siRNA transfection in a 24-well plate scale, cells were seeded at a density of 2×10^5 cells/well the day before transfection. To prepare siRNA transfection solution for each well of cells, 5 pmol of NT siRNA (non-targeting control siRNA, AM4636, Ambion), Tet3 siRNA (siRNA specifically targeting mouse Tet3, 4390815/s101483, Ambion), or TET3 siRNA (siRNA specifically targeting human TET3, 4392420/s47238, Ambion) (Cao et al., 2019, Oncogene, 38:5356-5366; Xu et al., 2020, Cell Rep., 30:1310-1318) were mixed with 25 μl of OPTI-MEM (Gibco, 31985-070) by gentle pipetting (Cao, T. et al., 2019, Oncogene, 38:5356-5366; Xu, Y. et al., 2020, Cell Reports, 30:1310-1318 e5). In parallel, 1.5 μl of Lipofectamine RNAiMAX (Invitrogen, 13778-150) was mixed with 25 μl of OPTI-MEM by gentle pipetting. […]
For Bobcat339 treatment (FIG. 15A and FIG. 15B), GT1-7 cells grown in 24-well plates at 2×10^5 cells/well were incubated with vehicle or Bobcat339 at a final concentration of 10 μM for 6 h, followed by RNA and protein extractions. […] Protein and RNA were isolated 48 h later and analyzed. […]

In the case of `Nc1nc(=O)n(-c2cccc(-c3ccccc3)c2)cc1Cl` [Bobcat339, 4-Amino-1-[1,1′-biphenyl]-3-yl-5-chloro-2(1H)-pyrimidinone], the TET3 protein level (6 h) is reported as “a decrease in the protein level of TET3; also recorded: rapidly decreased the level of TET3 protein; also recorded: decreased TET3 expression at the protein level” and the TET3 protein level (48 h, without exogenous TET3) is reported as “decreased the level of TET3 protein”.
